From article PMC8695447, “Novel Small Molecules Capable of Blocking mtRAS-Signaling Pathway” (Frontiers in Oncology, 2021) come the findings set out here.

Common to all, as to assay type: cell-based
For assay [1], the system named is cleaved PARP in Ba/F3-NRAS-G12D and Ba/F3-NRAS-G12V cells. As to the kind of experiment: Western blot, cleaved PARP in Ba/F3 cells transformed with mtRAS. The following applies: 1 μM, 24 h. On the procedure:
(§1) Approximately 1 × 10^6 cells per well were seeded in a 6-well cell culture plate. After cell adhesion, each compounds were treated for 2 h with indicated concentration and conducted brief washing twice by ice-cold PBS. Cells were lysed by NP40 buffer (50 mM Tris–HCl pH 7.4, 1% NP40, 2 mM EDTA, 150 mM NaCl) in the presence of protease inhibitor cocktail (Roche, #11873580001) and phosphatase inhibitor cocktail (Roche, #04906837001). Each sample was loaded with same amount of total protein and separated by SDS-PAGE gel. After transferred to nitrocellulose membrane, blocking with 5% skim milk (in TBS/T) was followed. […] Chemiluminescence signals were detected by ImageQuant™ LAS 4000 (GE Healthcare).
Figure 3 (A, B) The effects of SIJ1795 and SIJ1772 on apoptosis induction in Ba/F3 cells transformed with mtRAS (NRAS-G12D and NRAS-G12V). […] (C) Apoptotic cell population (annexin V-positive) was determined by flow cytometry analysis (n = 3). […] Statistical significance was calculated by a one-way ANOVA analysis (**p < 0.01, ***p < 0.001).

Assay [2] concerns cancer cells with mtRAS including H358, AsPC-1, DU-145, SW480, and MDA-MB-231. As to the kind of experiment: Migration assay (scratch assay). The following applies: 0.01 µM. The method, then:
For migration assay, scratch assay was conducted. Each cells (2.0 × 10^5 cells/well) were seeded in 24-well plates. After cellular attachment, cells were scratched with a SPLScarTM Scratcher (SPL Life Sciences, #201924) and the detached cells were removed by PBS washing twice. Cells were incubated in complete media with 0.01 μM concentrations of each compounds for indicated time. The images were acquired before and after incubation with compounds (40× magnification), and percent of migration were accessed using ImageJ (n = 3).
Figure 6 The effects of SIJ1795 and SIJ1772 on migration and invasion activities of cancer cells harboring mtRAS. (A) Scratch assay result for cell migration ability determination. Each cell monolayers were scratched and incubated with test compounds at 0.01 μM. After 8 h (MDA-MB-231) or 24 h (DU-145, SW480, HCT-116) or 48 h (AsPC-1) or 72 h (HT-29), cells were stained with crystal violet. Migrated areas were photographed with 40× magnification. Migrated area was determined by ImageJ (n = 3). (B) Boyden chamber assay result for cell invasion ability determination. Indicated compounds of 0.01 μM were treated and incubated for 48 h Invaded cells were stained by crystal violet and photographed. Stained cells were counted by ImageJ (n = 3). Statistical significance was determined using a one-way ANOVA analysis (*p < 0.05, **p < 0.01, ***p < 0.001, ****p < 0.0001).

For another assay, the system named is Ba/F3-NRAS-G12D cells. The assay can be described thus: Anti-proliferation assay (CellTiter Glo) on Ba/F3-NRAS-G12D. The following applies: Mus musculus, BaF3; 72 h treatment; average with SD (n = 3, duplicate). The method, then: (§2) Ba/F3-parental, OCI-AML3, U397 cells were purchased from DSMZ. MDA-MB-231, HCT-116, AsPC-1, H358, HT-29, SW480, and DU-145 cells were obtained from KCLB. MDA-MB-468 cells were obtained from ATCC. All cells were maintained in RPMI with 10% FBS and antibiotics. Cells were grown in a humidified 5% CO2 incubator at 37°C. Ba/F3-parental cells were grown in the presence of 10 ng/ml IL-3. NRAS-G12D or NRAS-G12V transformed Ba/F3 cell lines (Ba/F3-NRAS-G12D, and Ba/F3-NRAS-G12V, respectively) were cultured without IL-3, which were established by the procedure described as previously ([30]).
(§3) Approximately 3.0 × 10^3 cells/well were seeded in a 96-well cell culture plate. After stabilization, 1/3 serially diluted compound in DMSO was treated to the cell. […] All GI50 values were obtained in duplicate with three independent assays and averages with standard deviation are presented.

Another assay concerns Ba/F3-parental cells. As to the kind of experiment: Anti-proliferation assay (CellTiter Glo) on Ba/F3-parental. The following applies: Mus musculus, BaF3; 72 h treatment; with 10 ng/ml IL-3; average with SD (n = 3, duplicate). The method, then: as §2, §3
The subject of another assay is AsPC-1 (KRAS-G12D). The assay can be described thus: Anti-proliferation assay on AsPC-1. Conditions: Homo sapiens, ASPC1; 72 h treatment; average with SD (n = 3, duplicate). The method, then: as §2, §3
The test system of another assay is HT-29 (KRAS-Q61L). As to the kind of experiment: Anti-proliferation assay on HT-29. The following applies: Homo sapiens, HT-29; 72 h treatment; average with SD (n = 3, duplicate). On the procedure:
as §2, §3

In assay [3] the test system is phospho-AKT, -MEK, -ERK in cancer cells harboring mtRAS. The assay can be described thus: Western blot, phospho-AKT, -MEK, -ERK in cancer cells harboring mtRAS. The following applies: 0.1, 1, and 10 μM for 2 h. On the procedure:
as §1, with “followed. The membrane was incubated 4°C for overnight with uniformly diluted primary antibodies at 1:1,000 (v/v) in TBS/T. The following primary antibodies were used: anti-p-AKT (Cell Signaling, #9271), anti-p-ERK1/2 (Cell Signaling, #4370), anti-PARP (Cell Signaling, #9542), anti-GAPDH (Cell Signaling, #5174), anti-p-70S6K1 (Cell Signaling, #9204), anti-p-JNK(Cell Signaling, #9251), anti-p-p38 (Cell Signaling, #9216), and anti-p-MEK1/2 (Santa Cruz, sc-81503).” for “followed.”, “Healthcare). […]” for “Healthcare).”

For `Cc1ccc(NC(=O)c2cccc(C(F)(F)F)c2)cc1N1Cc2cnc(Nc3cnn(C4CCN(S(C)(=O)=O)CC4)c3)nc2N(C)C1=O` [SIJ1772, N-(4-Methyl-3-(1-methyl-7-((1-(1-(methylsulfonyl)piperidin-4-yl)-1H-pyrazol-4-yl)amino)-2-oxo-1,4-dihydropyrimido[4,5-d]pyrimidin-3(2H)-yl)phenyl)-3-(trifluoromethyl)benzamide], in assay [1], the “cleaved PARP level in Ba/F3-NRAS-G12D and Ba/F3-NRAS-G12V cells” value was “increased cleaved PARP level”. Besides, the “reduction in migration capabilities” value in assay [2] is reported as “over 50%”. Further, the GI50 in the assay with Ba/F3-NRAS-G12D cells amounted to 0.077 ± 0.016 µM; in the assay on Ba/F3-parental cells it was 1.92 ± 0.086 µM; with AsPC-1 (KRAS-G12D) it was 0.17 ± 0.032 µM; in the assay on HT-29 (KRAS-Q61L), 0.192 ± 0.094 µM. For the same compound, the “signaling inhibitory activities in cancer cells with mtRAS relative to GNF-7” value in assay [3] is on record as “comparable to those of GNF-7”.
Take `CCN1CCN(c2cccc(Nc3ncc4c(n3)N(C)C(=O)N(c3cc(NC(=O)c5cccc(C(F)(F)F)c5)ccc3C)C4)c2)CC1` [SIJ1795, N-(3-(7-((3-(4-Ethylpiperazin-1-yl)phenyl)amino)-1-methyl-2-oxo-1,4-dihydropyrimido[4,5-d]pyrimidin-3(2H)-yl)-4-methylphenyl)-3-(trifluoromethyl)benzamide]: the “cleaved PARP level in Ba/F3-NRAS-G12D and Ba/F3-NRAS-G12V cells” value in assay [1] was “increased cleaved PARP level”. Moreover, the “reduction in migration capabilities” value in assay [2] is recorded as “over 50%”. The GI50 came to 0.082 ± 0.031 µM in the assay with Ba/F3-NRAS-G12D cells, 2.02 ± 0.419 µM with Ba/F3-parental cells, 0.144 ± 0.023 µM with AsPC-1 (KRAS-G12D) and 0.154 ± 0.042 µM in the assay with HT-29 (KRAS-Q61L). Further, the “signaling inhibitory activities in cancer cells with mtRAS relative to GNF-7” value in assay [3] was “comparable to those of GNF-7”.
